In patent US11306064B2, “Benzothia(di)azepine compounds and their use as bile acid modulators” (Albireo AB, priority 2018, dated 2022):

Tests used:
HepaRG cells = test: HepaRG-based assay: 3H-taurocholic acid uptake in differentiated HepaRG cells; format: cell-based; conditions: 0.3 μM 3H-taurocholic acid and 7.5 μM cold taurocholic acid, 30 minutes
Method in brief: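 Differentiated HepaRG cells cultured 7 days post-seeding were exposed for 30 min at 37 °C to 0.3 μM 3H-taurocholic acid plus 7.5 μM cold taurocholic acid with inhibitor (3-fold dilutions, 0.2% DMSO). Uptake was stopped on ice, washed with 1 mM unlabelled taurocholic acid, and counted by scintillation.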

[1] = Bioavailability studies in mice; format: in vivo; conditions: mouse; C57BL/6 mice; single intravenous dose 1 mg/kg vs single oral dose 10 mg/kg; plasma LC-MS/MS
Method: C57BL/6 mice of 8-9 weeks old were used. For each test compound, two groups of 3 animals each were used. One group was administered a single intravenous dose of 1 mg/kg (vehicle 100% DMSO) through the tail vein and the other group was administered a single oral dose of 10 mg/kg through gavage needle. The group that was administered an oral dose was fasted overnight. Blood samples were collected after 0.083, 0.25, 0.5, 1, 2, 4, 6, 8 and 24 hours following intravenous administration, and after 0.25, 0.5, 1, 2, 4, 6, 8 and 24 hours following oral administration. Blood samples were taken from saphenous vein. 0.2% EDTA was used as the anticoagulant. The samples were analyzed by a discovery grade bioanalytical method developed for the estimation of test compound in plasma, using an LC-MS/MS system.

Row | IC50 (HepaRG cells; Homo sapiens, HepaRG) [nM] | bioavailability [1] [%] | IC50 (HepaRG cells) [nM] | SMILES
1 | 809 | 100 | – | CCCCC1(CC)CN(c2ccccc2)c2cc(Br)c(O/C=C/C(=O)O)cc2S(=O)(=O)C1 (single isomer, unassigned) [Example 6, (E)-3-((7-bromo-3-butyl-3-ethyl-1,1-dioxido-5-phenyl-2,3,4,5-tetrahydro-1,5-benzothiazepin-8-yl)oxy)acrylic acid]
2 | 1260 | 35 | – | CCCCC1(CC)CN(c2ccccc2)c2cc(SC)c(O/C=C/C(=O)O)cc2S(=O)(=O)C1 (single isomer, unassigned) [Example 18, (E)-3-((3-butyl-3-ethyl-7-(methylthio)-1,1-dioxido-5-phenyl-2,3,4,5-tetrahydro-1,5-benzothiazepin-8-yl)oxy)acrylic acid]
3 | – | 44 | 405 | CCCCC1(CC)CN(c2ccccc2)c2cc(SC)c(O/C=C(\F)C(=O)O)cc2S(=O)(=O)C1 (single isomer, unassigned) [Example 43, (Z)-3-((3-butyl-3-ethyl-7-(methylthio)-1,1-dioxido-5-phenyl-2,3,4,5-tetrahydro-1,5-benzothiazepin-8-yl)oxy)-2-fluoroacrylic acid]
4 | – | 18 | 260 | CCCCC1(CC)CN(c2ccccc2)c2cc(Cl)c(O/C=C(\F)C(=O)O)cc2S(=O)(=O)C1 (single isomer, unassigned) [Example 48, (Z)-3-((3-butyl-7-chloro-3-ethyl-1,1-dioxido-5-phenyl-2,3,4,5-tetrahydro-1,5-benzothiazepin-8-yl)oxy)-2-fluoroacrylic acid]
5 | 1090 | 27 | – | CCCCC1(CCCC)CN(c2ccccc2)c2cc(SC)c(O/C=C(\F)C(=O)O)cc2S(=O)(=O)C1 [Example 11, (Z)-3-((3,3-dibutyl-7-(methylthio)-1,1-dioxido-5-phenyl-2,3,4,5-tetrahydro-1,5-benzothiazepin-8-yl)oxy)-2-fluoroacrylic acid]
6 | 205 | 100 | – | CCC1(CC)CN(c2ccccc2)c2cc(SC)c(O/C=C(\F)C(=O)O)cc2S(=O)(=O)C1 [Example 44, (Z)-3-((3,3-diethyl-7-(methylthio)-1,1-dioxido-5-phenyl-2,3,4,5-tetrahydro-1,5-benzothiazepin-8-yl)oxy)-2-fluoroacrylic Acid]
